Source: article PMC10709440, “High-throughput ligand profile characterization in novel cell lines expressing seven heterologous insect olfactory receptors for the detection of volatile plant biomarkers” (Scientific Reports, 2023)
Where two headings read alike, the source gives them in different places.

How the values were obtained:
Drosophila OR49b = molecular target: T1, Drosophila OR49b (Drosophila melanogaster, UniProt Q9V6H2); experiment: cell-based; details: for Average response: OR49b cell line, mean of biological replicates
T1 construct: expressed in transfected cells
T1 sequence (Q9V6H2 1-375): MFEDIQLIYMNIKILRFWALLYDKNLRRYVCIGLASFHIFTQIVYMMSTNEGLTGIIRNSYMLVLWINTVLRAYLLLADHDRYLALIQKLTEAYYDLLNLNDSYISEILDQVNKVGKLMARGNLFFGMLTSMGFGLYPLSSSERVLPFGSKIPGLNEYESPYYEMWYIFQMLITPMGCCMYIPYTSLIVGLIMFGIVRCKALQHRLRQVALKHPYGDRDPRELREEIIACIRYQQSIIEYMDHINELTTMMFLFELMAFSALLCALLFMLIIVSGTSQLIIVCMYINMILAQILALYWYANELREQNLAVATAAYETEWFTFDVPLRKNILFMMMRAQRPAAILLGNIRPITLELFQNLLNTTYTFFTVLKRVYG
T1 sequence (Q9VNB5 1-486 partner): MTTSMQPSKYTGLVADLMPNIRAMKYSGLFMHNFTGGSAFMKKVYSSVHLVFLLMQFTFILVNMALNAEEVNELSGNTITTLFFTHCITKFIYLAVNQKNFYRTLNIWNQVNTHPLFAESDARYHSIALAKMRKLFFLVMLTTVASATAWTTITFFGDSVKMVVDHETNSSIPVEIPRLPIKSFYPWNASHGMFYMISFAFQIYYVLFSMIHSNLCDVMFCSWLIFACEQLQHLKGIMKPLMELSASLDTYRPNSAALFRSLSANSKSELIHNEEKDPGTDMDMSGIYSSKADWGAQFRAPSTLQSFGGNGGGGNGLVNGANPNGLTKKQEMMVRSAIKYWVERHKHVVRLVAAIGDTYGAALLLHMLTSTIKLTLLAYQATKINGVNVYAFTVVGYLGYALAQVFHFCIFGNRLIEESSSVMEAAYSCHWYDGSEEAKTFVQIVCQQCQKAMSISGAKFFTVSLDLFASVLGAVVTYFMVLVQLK
Description: (§1) These VUAA1 normalized ∆F values were used to compare the different receptors and ligands.
(§2) The concentration-dependent effect of the reference ligands on their cognate cell lines was examined in more detail. Twelve different ligand concentrations were measured on each cell line in an overall 0.01 μM to 100 μM concentration range with 5 repetitions with three technical replicates each time.
(§3) Twelve thousand to 18,000 cells were plated into each well of a black wall, transparent bottom 384-well microplate (Greiner) 48 h or 72 h before the measurements and were simultaneously treated with 1 μg/mL doxycycline. […] The plate has 24 columns, thus we could record responses in up to eight different cell lines in each plate. On the day of the experiment, the growth medium was replaced with 20 µL assay buffer/well (140 mM NaCl, 5 mM KCl, 2 mM CaCl2, 1 mM MgCl2, 5 mM HEPES-Na, 20 mM glucose, pH 7.3, 340 mOsm). […] Baseline fluorescence (F0) was recorded for 5 s, after which 7 µL VOC buffer (140 mM NaCl, 5 mM KCl, 2 mM CaCl2, 1 mM MgCl2, 5 mM HEPES-Na, 31 mM glucose, 0.1% DMSO, pH 7.3, 340 mOsm) was injected into each well in one row and the fluorescence response was recorded for an additional 30 s, at a rate of one read/sec. VOC solutions (VOC buffer with 4× concentration of the final measured VOC concentration, 9 µL/well was injected) were measured on the same wells in a second round with the same protocol. Each individual concentration of a specific VOC sample was recorded in three wells for the same cell line on the same microplate. The raw data were exported in xls file format, F0 and FMAX values, and the fluorescence intensity changes (∆F) were calculated in Excel (Microsoft) (Supplementary file Data summary.xlsx) using the following equation: ΔF=FMAX-F0/F0 (see also Fig. 1C). On each plate, we recorded the response of each cell line to 50 µM VUAA1. The average of these ∆F values of each cell line were used to calculate the VUAA1-normalized values for the rest of the plate, by dividing VOC response ∆F values by the average VUAA1 response ∆F value of the corresponding OR cell line. Each VOC-OR combination was measured three times as technical replicates. […] The average of these replicates were used as one ∆F and VUAA1-normalized ∆F in the following analysis.
(§4) In the next rows we tested the reference VOCs (or other VOCs known to activate the corresponding cell lines), in order to test if all cell lines are responsive. The remaining rows were used to test VOCs with unknown effect.
(§5) The recorded FMAX, F0, ∆F, VUAA1-normalized ∆F values, as well as the OR name, the name of the tested sample, and the final concentration for each well were copied into supplementary file Data summary.xlsx, that was used to summarize all the plates recorded. Here, the averages of the measurements were calculated for each receptor-VOC-concentration combination.

Drosophila OR71a = molecular target: T2, Drosophila OR71a (Drosophila melanogaster, UniProt Q9VUK5); experiment: Calcium ion fluorescence (GCaMP6) assay, OR71a stable HEK293 cell line; type: cell-based; details: for activation at 1 µM / activation at 10 µM / activation at 100 µM: HEK293, read-out: OR71a response (VUAA1-normalized response); for Average response: OR71a cell line, VUAA1-normalized response, mean of biological replicates
T2 construct: expressed in transfected cells
T2 sequence (Q9VUK5 1-378): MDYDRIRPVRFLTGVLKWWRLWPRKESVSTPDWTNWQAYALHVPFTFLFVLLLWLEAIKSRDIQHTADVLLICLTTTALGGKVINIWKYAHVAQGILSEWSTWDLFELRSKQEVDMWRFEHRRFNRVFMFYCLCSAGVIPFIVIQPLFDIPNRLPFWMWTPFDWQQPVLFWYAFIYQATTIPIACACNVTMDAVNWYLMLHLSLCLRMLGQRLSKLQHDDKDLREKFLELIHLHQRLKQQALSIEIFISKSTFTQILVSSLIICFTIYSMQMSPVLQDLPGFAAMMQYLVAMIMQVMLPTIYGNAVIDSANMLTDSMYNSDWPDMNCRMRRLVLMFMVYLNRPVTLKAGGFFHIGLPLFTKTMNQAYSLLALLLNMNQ
T2 sequence (Q9VNB5 1-486 partner): T1 sequence (Q9VNB5 1-486 partner)
Description: as §1, §2, §3, §4, §5

[1] = HEK293, VOC concentration 1 μM, read-out: OR49b response (VUAA1-normalized response)
[2] = HEK293, VOC concentration 10 μM, read-out: OR49b response (VUAA1-normalized response)
[3] = HEK293, VOC concentration 100 μM, read-out: OR49b response (VUAA1-normalized response)
[4] = ligand concentration 1 (unit not given), threshold 0.05, below shown as 0
[5] = ligand concentration 10 (unit not given), threshold 0.05, below shown as 0
[6] = ligand concentration 100 (unit not given), threshold 0.05, below shown as 0
[7] = HEK293, read-out: OR49b Average response (VUAA1-normalized)
[8] = HEK293, read-out: OR49b response (VUAA1-normalized response)

Row | Compound | activation at 1 µM (Drosophila OR49b; [1]) [%] | activation at 10 µM (Drosophila OR49b; [2]) [%] | activation at 100 µM (Drosophila OR49b; [3]) [%] | Average response (Drosophila OR49b; odorant cc. 1 µM) | Average response (Drosophila OR49b; odorant cc. 10 µM) | Average response (Drosophila OR49b; odorant cc. 100 µM) | activation at 1 µM (Drosophila OR71a) [%] | activation at 10 µM (Drosophila OR71a) [%] | activation at 100 µM (Drosophila OR71a) [%] | Average response (Drosophila OR71a; cc. 1 µM) | Average response (Drosophila OR71a; cc. 10 µM) | Average response (Drosophila OR71a; cc. 100 µM) | DF norm AVERAGE OR71a (Drosophila OR71a; [4]) | DF norm AVERAGE OR71a (Drosophila OR71a; [5]) | DF norm AVERAGE OR71a (Drosophila OR71a; [6]) | other results
1 | CCCCCCCCCC=O [decanal] | 0 | 0 | 9 | 0.00 | 0.00 | 0.09 | 0 | 0 | 0 | 0.00 | 0.00 | 0.0139 | 0 | 0 | 0 | DF norm AVERAGE OR49b (Drosophila OR49b; [4]): 0; DF norm AVERAGE OR49b (Drosophila OR49b; [5]): 0; DF norm AVERAGE OR49b (Drosophila OR49b; [6]): 0.08966
2 | C=CC(O)CCCCC (stereo not drawn) [1-octen-3-ol] | 0 | 0 | 0 | 0.00 | 0.0174 | 0.0145 | 0 | 0 | 5.55 | 0.00 | 0.0223 | 0.0555 |  |  |  | DF norm AVERAGE OR49b (Drosophila OR49b): 0; DF norm AVERAGE OR71a (Drosophila OR71a; concentration 1, normalized fluorescence change, values below 0.05 threshold given as 0): 0; DF norm AVERAGE OR71a (Drosophila OR71a; concentration 10, normalized fluorescence change, values below 0.05 threshold given as 0): 0; DF norm AVERAGE OR71a (Drosophila OR71a; concentration 100, normalized fluorescence change, values below 0.05 threshold given as 0): 0.05555
3 | CCCCOC(C)=O [butyl acetate] |  |  |  |  |  |  | 0 | 0 | 0 | 0.00 | 0.00 | 0.0132 | 0 | 0 | 0 | activation at 1 µM (Drosophila OR49b; [7]): 0%; activation at 10 µM (Drosophila OR49b; [7]): 0%; activation at 1 µM (Drosophila OR49b; [8]): 0%; activation at 10 µM (Drosophila OR49b; [8]): 0%; activation at 100 µM (Drosophila OR49b; [8]): 20%
